The results in this text go back to patent US8354381B2, “Peptide compositions for oral care systems” (E I du Pont de Nemours and Company, priority 2009, dated 2013).

Where no end group is shown, it is not given here. The star is where a group is joined. Biotin = O=C1N[C@H]2[C@H](CS[C@H]2CCCCC(=O)*)N1

The first experiment deals with pellicle-coated HAP disks. In words: Phage ELISA on pellicle-coated HAP disks. The experiment is classed as binding, human. Particulars: over 10^10 pfu phage, A450. From the text:
A total of 20 selected phage candidates (Example 1) were used in a phage ELISA experiment. Purified phage lysates were used for binding to pellicle-coated HAP disks using an anti-M13 phage antibody conjugated to horseradish-peroxidase, followed by the addition of chromogenic agent TMB (3,3′,5,5′-tetramethylbenzidine), obtained from Pierce Biotechnology (Item #34021; Rockford, Ill.). The plates were read at A450 nm.
For each phage candidate to be tested, the pellicle-coated HAP disks (3 mm diameter) was incubated for 1 h at room temperature with 200 μL of blocking buffer, consisting of 2% non-fat dry milk (Schleicher & Schuell, Inc.) in TBS. […] The tube was rinsed 6 times with wash buffer consisting of TBST-0.05%. The wells were filled with 200 μL of TBST-0.5% containing 1 mg/mL BSA (bovine serum albumin) and then 10 μL (over 10^10 pfu) of purified phage stock was added. The samples were incubated at room temperature for 60 min with slow shaking. The non-binding phage were removed by washing 6 times with TBST-0.5%. […] The conjugate solution was removed and was washed 6 times with TBST-0.5%.
As for “AHPESLGIKYALDGNSDPHA (Synthetic oral-surface binding peptide) [Pell 1]”, the O.D.450 was 0.739.
Still for that read-out and setting: as for “ASVSNYPPIHHLATSNTTVN (Synthetic oral-surface binding peptide) [Pell 2]”, the figure is 0.75; as for “DECMEPLNAAHCWR (Synthetic oral-surface binding peptide) [Pell 3]”, 0.49.
Still for that read-out and setting: as for “DECMHGSDVEFCTS (Synthetic oral-surface binding peptide) [Pell 4]”, the figure is 0.664; as for “DLCSMQMMNTGCHY (Synthetic oral-surface binding peptide) [Pell 5]”, 0.83; as for “DLCSSPSTWGSCIR (Synthetic oral-surface binding peptide) [Pell 6]”, 0.735.
On the same count and under the same terms, as for “DPNESNYENATTVSQPTRHL (Synthetic oral-surface binding peptide) [Pell 7]”, the figure is 0.831; as for “EPTHPTMRAQMHQSLRSSSP (Synthetic oral-surface binding peptide) [Pell 8]”, 0.712; as for “GNTDTTPPNAVMEPTVQHKW (Synthetic oral-surface binding peptide) [Pell 9]”, 0.755.
On to “NGPDMVQSVGKHKNS (Synthetic oral-surface binding peptide) [Pell 10]”, for which the O.D.450 is recorded as 0.729.
In turn, “NGPEVRQIPANFEKL (Synthetic oral-surface binding peptide) [Pell 11]” showed an O.D.450 of 0.607.
The same measure, in the same setting: as for “NNTSADNPPETDSKHHLSMS (Synthetic oral-surface binding peptide) [Pell 12]”, the figure is 0.521; as for “NNTWPEGAGHTMPSTNIRQA (Synthetic oral-surface binding peptide) [Pell 13]”, 0.598; as for “NPTATPHMKDPMHSNAHSSA (Synthetic oral-surface binding peptide) [Pell 14]”, 0.7.
The substance “NPTDHIPANSTNSRVSKGNT (Synthetic oral-surface binding peptide) [Pell 15]” returned an O.D.450 of 0.567.
For “NPTDSTHMMHARNHE (Synthetic oral-surface binding peptide) [Pell 16]”, the O.D.450 came out at 0.578.
Substance “QHCITERLHPPCTK (Synthetic oral-surface binding peptide) [Pell 17]” returned an O.D.450 of 0.614.
The same measure, in the same setting: as for “TPCAPASFNPHCSR (Synthetic oral-surface binding peptide) [Pell 18]”, the figure is 0.416; as for “TPCATYPHFSGCRA (Synthetic oral-surface binding peptide) [Pell 19]”, 0.731.
On the same count and under the same terms, as for “WCTDFCTRSTPTSTSRSTTS (Synthetic oral-surface binding peptide) [Pell 20]”, the figure is 0.715.

The next experiment deals with pellicle coated bovine enamel. The experiment in a line: Phage ELISA on pellicle coated bovine enamel (Example 6). Format: binding, human. Particulars: 10^11 pfu phage, 30 min in vivo pellicle on bovine enamel, normalized to an internal control. How it is done:
A total of 29 selected phage candidates from Table 5 were used in phage ELISA Experiment to determine binding affinity and coverage of each phage on pellicle substrates. Purified phage lysates were used for binding to pellicle coated bovine enamel using an anti-M13 phage antibody conjugated to horseradish-peroxidase, followed by the addition of chromogenic agent TMB. The plates were read at A450 nm.
The wells were filled with 1 mL of 10^11 pfu purified phage stock which was prepared by diluting in blocking buffer. […] The non-binding phage was removed by washing 5 times with PBST. […] The conjugate solution was removed and was washed 3 times with PBST.
In the case of “ANELSTYAQTNPGSG (Synthetic oral-surface binding peptide) [DenP25]”, the “O.D.450 (normalized)” value stood at 0.909.
Same read-out and setting: as for “APPTYQTASYPHNLPSKRKM (Synthetic oral-surface binding peptide) [DenP28]”, the figure is 1.203; as for “AVVPADLNDHANHLS (Synthetic oral-surface binding peptide) [DenP10]”, 1.619; as for “DHNNRQHAVEVRENKTHTAR (Synthetic oral-surface binding peptide) [DenP21]”, 0.728.
Still for that read-out and setting: as for “DLGTFPNRTLKMAAH (Synthetic oral-surface binding peptide) [DenP11]”, the figure is 1.663; as for “DTIHPNKMKSPSSPL (Synthetic oral-surface binding peptide) [DenP26]”, 1.039; as for “EFPYYNDNPPNPERHTLR (Synthetic oral-surface binding peptide) [DenP7]”, 1.500.
The same measure, in the same setting: as for “ELDHDSRHYMNGLQRKVT (Synthetic oral-surface binding peptide) [DenP15]”, the figure is 1.112.
As to “FDGIGLGTATRHQNR (Synthetic oral-surface binding peptide) [DenP12]”, the “O.D.450 (normalized)” value is 2.079.
In the case of “GMPTRYYHNTPPHLTPKF (Synthetic oral-surface binding peptide) [DenP8]”, the “O.D.450 (normalized)” value was 1.182.
Same read-out and setting: as for “GPQHVLMQDTHQGYAFDN (Synthetic oral-surface binding peptide) [DenP16]”, the figure is 2.190; as for “HDPNHLTHQARTIYRNANHT (Synthetic oral-surface binding peptide) [DenP23]”, 1.236.
For “HKNAIQPVNDATTLDTTM (Synthetic oral-surface binding peptide) [DenP9]”, the “O.D.450 (normalized)” value is 1.364.
On the same count and under the same terms, as for “HKNENIMQYNVNDRWHITPA (Synthetic oral-surface binding peptide) [DenP32]”, the figure is 1.441; as for “IPWWNIRAPLNAGGG [Control, reference compound]”, 1.000.
The same measure, in the same setting: as for “IYPNESMSTSNVRGPYHP (Synthetic oral-surface binding peptide) [DenP22]”, the figure is 1.420; as for “KAPIANMLQPHSYQYSVA (Synthetic oral-surface binding peptide) [DenP18]”, 1.143.
The same measure, in the same setting: as for “NGNNHTDIPNRSSYTGGSFA (Synthetic oral-surface binding peptide) [DenP1]”, the figure is 1.002.
For the substance “QAAQVHMMQHSRPTT (Synthetic oral-surface binding peptide) [DenP13]”, the “O.D.450 (normalized)” value is given as 0.845.
Same read-out and setting: as for “QVPDYLSPTHQKKAFLEIPT (Synthetic oral-surface binding peptide) [DenP29]”, the figure is 0.976.
The same measure, in the same setting: as for “SEARARTFNDHTTPMPII (Synthetic oral-surface binding peptide) [DenP14]”, the figure is 2.498.
“SNATMYNIQSHSHHQ (Synthetic oral-surface binding peptide) [DenP24]”: the “O.D.450 (normalized)” value is 0.979.
With “TMTNHVYNSYTEKHSSTHRS (Synthetic oral-surface binding peptide) [DenP2]”, the “O.D.450 (normalized)” value amounted to 1.951.
On the same count and under the same terms, as for “TNDLHANPFTGTYIAPDPTS (Synthetic oral-surface binding peptide) [DenP30]”, the figure is 1.082.
The same measure, in the same setting: as for “TTGSSSQADTSASMSIVPAH (Synthetic oral-surface binding peptide) [DenP17]”, the figure is 0.971; as for “TYQGVPSWPAVIDDAIRR (Synthetic oral-surface binding peptide) [DenP19]”, 1.052; as for “VEPATKNMREARSSTQMRRI (Synthetic oral-surface binding peptide) [DenP4]”, 1.421.
With “VNPNWVETQALHQPPGNT (Synthetic oral-surface binding peptide) [DenP20]”, the “O.D.450 (normalized)” value stood at 1.298.
Still for that read-out and setting: as for “YLLPKDQTTAPQVTPIVQHK (Synthetic oral-surface binding peptide) [DenP5]”, the figure is 1.087.

The next experiment concerns pellicle coated enamel substrates.
Assay: not given
Particulars: 20 μM biotinylated peptide, streptavidin-HRP, normalized to DenP03, three replicates. The protocol:
A total of 20 synthetic peptides were manufactured using sequences obtained from Table 6. Peptides were obtained from SynBioSci Corp. (Livermore, Calif.) and included an additional sequence (SSRP; SEQ ID NO: 118) at the N-terminus and biotin labeled lysine at the C-terminus.
Enamel substrates were cut into approximately 7 mm squares and mounted on wax mounting for incubation in the mouth for 30 min to form a pellicle coated surface. The pellicle coated enamel substrates were removed from the wax backing and placed in well plates with the pellicle surface exposed as in Example 5. Each pellicle coated substrate was incubated for 1 h at room temperature (˜22° C.) with 1 mL of blocking buffer, consisting of 1 mg/mL BSA in PBST (Pierce BUPH™ #28372 with 0.1% TWEEN® 20). The blocking buffer was removed by aspirating the liquid out of each well. The tube was rinsed 2 times with wash buffer consisting of PBST. The wells were filled with 500 μL of 20 μM peptide solution which was prepared by diluting in blocking buffer. The samples were incubated for 30 min with slow shaking at 37° C. The non-binding peptide was removed by washing 6 times with PBST. Then, 500 μL of horseradish peroxidase/streptavidin conjugate (Pierce #22127), diluted 1:2000 in PBST, was added and incubated for 1 h at room temperature (˜22° C.). The conjugate solution was removed and was washed 4 times with PBST.
Each enamel substrate was removed from the well and washed again in a 15-mL test tube with 10 mL of PBST. Each enamel substrate was then mounted in a clean well plate with only the enamel surface exposed. A 1:1 solution of TMB substrate and H2O2 (200 μL) was added to each well and the color was allowed to develop for between 10 to 20 min, typically for 15 min, at room temperature (˜22° C.). Then, 100 μL of solution from each well was transferred to a 96 well reading plate containing stop solution (100 μL of 2 M H2SO4) in each well. The A450 was measured using a microplate spectrophotometer (Molecular Devices, Sunnyvale, Calif.). […] Each sequence was tested with three replicate enamel coated pellicle substrates.
For “SSRPAPPTYQTASYPHNLPSKRKMK(Biotin) [DenP28-A]”, the “O.D.450 (normalized)” value amounted to 0.811.
On the same count and under the same terms, as for SSRPDLGTFPNRTLKMAAHK(Biotin) [DenP11-A], the figure is 0.454.
